{"source": "patent US20240245639A1", "about": "“Dermal Application of Retinoic Acid Receptor Agonists for Amelioration of Hypertrophic Scar” (Northwestern University, priority 2023, published 2024)", "key": {"[1]": {"target": "T1, RAR-β (Homo sapiens, UniProt P10826)", "T1 sequence (P10826 1-455)": "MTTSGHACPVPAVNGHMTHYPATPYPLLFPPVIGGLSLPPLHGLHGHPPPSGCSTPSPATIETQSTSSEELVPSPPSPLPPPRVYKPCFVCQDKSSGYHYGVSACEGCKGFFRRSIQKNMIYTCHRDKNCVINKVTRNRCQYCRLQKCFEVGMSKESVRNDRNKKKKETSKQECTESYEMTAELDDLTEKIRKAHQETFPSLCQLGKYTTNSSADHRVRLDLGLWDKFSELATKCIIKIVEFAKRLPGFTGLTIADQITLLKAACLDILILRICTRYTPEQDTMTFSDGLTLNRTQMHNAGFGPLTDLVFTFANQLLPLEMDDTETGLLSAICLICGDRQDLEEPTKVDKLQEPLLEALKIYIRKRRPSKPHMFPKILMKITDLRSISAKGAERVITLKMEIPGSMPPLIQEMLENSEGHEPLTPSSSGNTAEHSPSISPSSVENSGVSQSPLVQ", "conditions": "cited from earlier work"}, "[2]": {"system": "primary human foreskin fibroblasts", "test": "Antagonism of fibroblast activation in presence or absence of TGF-β1 (qRT-PCR, Western blot, immunofluorescence)", "type": "cell-based", "conditions": "1,000 nM Ch55, presence and absence of TGF-β1, 48 hours", "procedure": "RAR Agonist all-Trans Retinoic Acid Antagonizes Myofibroblast Activation We then wished to see whether another RAR agonist could antagonize myofibroblast activation.\n(§1) Cells cultured on glass coverslips were fixed in 4% paraformaldehyde for 30 minutes at room temperature. Cells were blocked in 10% normal goat serum and incubated overnight at 4° C. in solutions of the following primary antibodies: Rabbit monoclonal α-human α-SMA (1:500 dilution, catalog #192455, Cell Signaling Technology, Danvers M A) or mouse α-human COL1A1 (1:1000 dilution, catalog #M-38c, DSHB, Iowa City, IA). The following day, cells were incubated in 1:200 diluted solutions of goat-α-rabbit IgG or donkey-α-mouse IgG Alexafluor 488-conjugated secondary antibodies (A11034 or A21202, Invitrogen) containing Alexafluor 568-conjugated phalloidin (A12380, Invitrogen) for 2 hours in the dark at room temperature, before a 20 minute counterstain in 500 ng/mL DAPI. Coverslips were mounted onto slides in the dark using Fluoro Gel with DABCO (Electron Microscopy Sciences, Hatfield, PA) and imaged on an EVOS-FL imaging system (ThermoFisher).\nHarvested scar tissues were incubated in 0.5M ammonium thiocyanate for 20 minutes, followed by mechanical separation of dermis and epidermis using a dissecting microscope. Isolated dermal tissues were minced with a razor blade, submerged in RIPA buffer, and homogenized in the presence of 2 mm zirconia beads using a MagNA Lyser (Roche, Basel, Switzerland). Alternatively, cell culture samples were detached from the culture surface by trypsinization, collected by centrifugation, and lysed in RIPA buffer. Protein concentrations of cell culture and tissue samples were determined using a DC protein assay (BioRad). Five micrograms of total protein were loaded onto polyacrylamide gels and subjected to SDS-PAGE before transfer to nitrocellulose membranes, blocking with 5% dry milk in TBS-T, and probing with target-specific primary antibodies overnight. Species-specific secondary antibody solutions were added to membranes, and chemiluminescent signal was developed with Amersham ECL Western blotting detection reagent using X-ray film.\nPrimary antibodies used were rabbit anti-α-SMA (1:1000, 19245S, Cell Signaling Technology), rabbit anti-collagen I (1:1000, ab34710, Abcam), mouse anti-collagen I (1:1000, C2456, Sigma-Aldrich), and mouse anti-GAPDH (1:5000, MA5-15738, Invitrogen). Secondary antibodies utilized were HRP goat anti-rabbit IgG(H+L) and horse anti-mouse IgG(H+L) (Vector Laboratories, Newark, CA), both used at 1:5000."}, "[3]": {"system": "primary human foreskin fibroblasts", "test": "Antagonism of fibroblast activation in presence or absence of TGF-β1 (qRT-PCR, Western blot, immunofluorescence)", "type": "cell-based"}, "[4]": {"system": "primary human keloid fibroblasts", "test": "Collagen I deposition in keloid fibroblasts (Western blot, immunofluorescence)", "type": "cell-based", "conditions": "keloid fibroblasts, 1,000 nM Ch55, presence and absence of TGF-β1, 48 hours", "procedure": "Since overproduction of collagen is characteristic of fibroblasts in tissue fibrosis, including hypertrophic scar and keloid, we wished to determine whether Ch55 also affects deposition of collagen I by these fibroblasts.\nas §1, with “Coverslips were mounted onto slides in the dark using Fluoro Gel with DABCO (Electron Microscopy Sciences, Hatfield, PA) and imaged on an EVOS-FL imaging system (ThermoFisher).” left out\nHarvested scar tissues were incubated in 0.5M ammonium thiocyanate for 20 minutes, followed by mechanical separation of dermis and epidermis using a dissecting microscope. […] Protein concentrations of cell culture and tissue samples were determined using a DC protein assay (BioRad). […]"}, "[5]": {"conditions": "1,000 nM Ch55, ± 10 ng/mL TGF-β1, 24 hour"}, "[6]": {"conditions": "1,000 nM Ch55, ± TGF-β1, 48 hours"}}, "data": [{"smiles": "CC(C)(C)c1cc(C(=O)/C=C/c2ccc(C(=O)O)cc2)cc(C(C)(C)C)c1", "note": "[Ch55]", "values": [{"measurement": "affinity for RAR-β", "setting": "[1]", "value": "high affinity"}, {"measurement": "α-SMA protein in filamentous actin stress fibers (immunofluorescence)", "setting": "[2]", "value": "loss of α-SMA protein from filamentous actin stress fibers"}, {"measurement": "spread area per cell (brightfield microscopy)", "setting": "[3]; 1,000 nM Ch55, 48 hours", "value": "decreased"}, {"measurement": "deposition of collagen I (immunofluorescence)", "setting": "[3]; 1,000 nM Ch55, presence and absence of TGF-β1, 48 hours", "value": "greatly diminished deposition"}, {"measurement": "basal and TGF-β1-induced expression of ACTA2 (qRT-PCR)", "setting": "[3]; [5]", "value": "significantly downregulated"}, {"measurement": "basal and TGF-β1-induced expression of CCN2 (qRT-PCR)", "setting": "[3]; [5]", "value": "significantly downregulated"}, {"measurement": "basal and TGF-β1-induced expression of SERPINE1 (qRT-PCR)", "setting": "[3]; [5]", "value": "significantly downregulated"}, {"measurement": "collagen deposition as assessed by expression of type I collagen (Western blot)", "setting": "[3]; [6]", "value": "dramatically antagonized"}, {"measurement": "fibroblast activation as assessed by expression of α-SMA (Western blot)", "setting": "[3]; [6]", "value": "dramatically antagonized"}, {"measurement": "collagen I deposition (Western blot, immunofluorescence)", "setting": "[4]", "value": "dramatic reduction"}]}]}
